Experimental data: patent publication US5442101A, “Methylenebisphosphonic acid derivatives” (Leiras Oy, priority 1990, dated 1995)

Test system: parathyroid hormone stimulated bone resorption in mouse calvaria
Experiment: parathyroid hormone stimulated bone resorption inhibition activity in vitro in mouse calvaria (antiresorptive activity)
Assay type: cell-based
Conditions: PTH stimulated

SMILES: CCN(CC)P(=O)(O)C(Cl)(Cl)P(=O)(N(CC)CC)N(CC)CC [(dichloromethylene)bisphosphonic acid tris(diethylamide)]
- inhibition at 100 µM: 44%

SMILES: CCN(CC)P(=O)(OC(C)C)C(Cl)(Cl)P(=O)(O)O (centres unmarked) [(dichloromethylene)bisphosphonic acid P-monoisopropyl ester P-mono(diethylamide)]
- Antiresorptive activity, Inhibition of resorption (%) (100 μM): 44%

SMILES: O=P(O)(O)C(Cl)(Cl)P(=O)(O)O [Clodronate, reference compound]
- inhibition at 100 µM: 43%

SMILES: CCN(CC)P(=O)(O)C(Cl)(Cl)P(=O)(O)O [(dichloromethylene)bisphosphonic acid mono(diethylamide)]
- inhibition at 100 µM: 43%

SMILES: CCN(CC)P(=O)(O)C(Cl)(Cl)P(=O)(O)N(CC)CC [(dichloromethylene)bisphosphonic acid P,P'-bis(diethylamide)]
- inhibition at 100 µM: 38%
